Tests used:
[1] = tested on: multi lamellar vesicles of soybean phosphatidylcholine (PCh); assay: Inhibition of peroxidic oxidation of lipids (POL): TBA-sensitive products in soybean phosphatidylcholine liposomes; format: biochemical
Protocol: The antioxidative activity of preparations with varying combinations of the ingredients was evaluated on the basis of their effect on the increase of concentration of POL products (malondialdehyde or products that are sentitive to thiobarbituric acid (TBA)) in an aqueous dispersion of soybean phospholipids. For this evaluation the concentration in the soybean phospatidylcholine liposomes was measured at an initial moment and after incubation at 37° C. for 60 min. in the absence and presence of POL starters, namely, Fe^3+ ions and ascorbate.
Originally a 2.0 percent aqueous dispersion of phospholipides with antioxidants, where wheat germ oil is also present, contains an insignificant amount of products sensitive to TBA (0.8 nmol/ml). This amount rises to 2-2.5 times as much as a result of heating for 60 min. When starters are added to the original system the concentration of POL products rises to 40 nmol/ml during incubation at 37° C. for 60 min., i.e., will be […] as high.
Increase of the amount of products sensitive to TBA [nmol/ml] in multi lamellar vesicles of soybean phosphatidylcholine (PCh) containing N-acetyl-L-cysteine as a result of oxidation, the latter caused by introduction of an oxidation starter Pe3+/ascorbat (60 min, 37° C.) into the system, in the absence and presence of various antioxidants (AO).

[2] = in tablets; cited from earlier work

O=C1O[C@H]([C@@H](O)CO)C(O)=C1O [ascorbic acid]
minimum inhibiting concentration ([1]; POL inhibition, ascorbic acid alone): 2500 µg/mL | decrease of the concentration of the acid when wheat germ oil is simultaneously present ([1]; wheat germ oil and ascorbic acid simultaneously present): 5 times

O=C1c2c(O)cc(O)cc2O[C@H](c2ccc(O)c(O)c2)[C@H]1O [dihydroquercetin]
minimum effective concentration ([1]; POL inhibition): 0.03 mg/mL | antioxidant activity when wheat germ oil was added ([1]; wheat germ oil added to dihydroquercetin): decreased

vitamin E
bioavailability [2]: 3%

Reference: patent US20100119589A1, “LIPOSOMAL COMPOSITION OF ANTIOXIDANTS FOR INHALATIONS CARRIED OUT DURING LUNG AND UPPER RESPIRATORY TRACT DISEASES” (OTKRYTOE AKTSIONERNOE OBSCHESTVO ZAVOD EKOLOGICHES, priority 2006, published 2010)
